# Columns and labels:
# [1] = system: alpha-dystroglycan (α-DG); experiment: Immunoblot of total protein lysates, C2C12 myotubes; assay type: cell-based, murine; conditions: 5 μM, 48 hours
# Procedure: Myotubes treated for 48 hrs were lysed using RIPA buffer (Thermo Fisher Scientific) containing Halt Protease Inhibitor Cocktail (Thermo Fisher Scientific). Cell lysates in RIPA buffer were rocked for 1 hr at 4° C. and centrifuged at 1,000 RPM for 30 mins at 4° C. The supernatant was collected, quantified for protein concentration using the DC protein assay (Bio-Rad), and normalized to 2 mg/ml in water and Laemmli sample buffer with a final concentration of 10% glycerol (Sigma-Aldrich), 5% beta-mercaptoethanol (Sigma-Aldrich), 3% sodium dodecyl sulfate (Sigma-Aldrich), and 0.05% bromophenol blue (Sigma-Aldrich). For SDS-PAGE, samples were heated to 95° C. for 2 mins before loading 40 μg onto 4-12% tris-glycine or bis-tris polyacrylamide gels (Novex), electrophoresed for 2 hrs at 100 volts at RT, and transferred to a nitrocellulose membrane for 2 hrs at 100 volts at 4° C. Ponceau S staining was performed to visualize protein loading and verify protein transfer. […] Autoradiography films were developed using a SRX-101A tabletop processor (Konica Minolta), scanned to a digital file, and analyzed by densitometry of bands using ImageJ version 1.51 s. […]
# mdx myotubes = experiment: Membrane stability assay (creatine kinase release after osmotic shock); assay type: cell-based, murine; conditions: for CK release after osmotic shock: 5 μM
# Procedure: The membrane stability assay was modified from previously described methods. The solutions for osmotic shock were prepared from a base solution containing 5 mM HEPES, 5 mM KCl, 1 mM MgCl2, 5 mM NaCl, 1.2 mM CaCl2), and 1 mM glucose. Sucrose was added to the base solutions to reach osmolarities of 50, 80, 100, 280, and 300 mosmol. The actual osmolarity was determined using a VAPRO vapor pressure osmometer (Wescor Inc.) Myotubes were treated for 48 hours and at day 4 of differentiation were subjected to 20 mins of osmotic shock at 37° C. using 28.5 to 223.5 milliosmole (mosmol) solutions. The supernatant was collected and centrifuged to separate cell debris. Adherent cells were trypsinized and pelleted before lysis with water and 3 freeze-thaw cycles. The Creatine Kinase Assay (Sekisui Diagnostics) was used to measure creatine kinase (CK) levels in both the supernatant and lysate fractions. In a 96-well plate, 4 μl of each sample and 140 μl of reagent was loaded per well in triplicate. The U/L of CK was calculated as follows: (mOD/min)(total volume in mL)(dilution factor)/(6.22M-lcm-1)(light path in cm)(sample volume in mL). The percent CK release was calculated as follows: CKextracellular/(CKextracellular+CKintracellular)*100.
# The assay entails subjecting myotubes to osmotic shock, which causes cell swelling and membrane damage, allowing for intracellular CK to be released from the cell into the surrounding medium (FIG. 5a).
# To assess the effect of SSPN knockdown on membrane stability in the absence of any compound treatment, we transfected mdx myotubes with 24 and 48 nM of scramble and SSPN siRNA and subjected the cells to osmotic shock with 45 mosmol solutions. […] We treated mdx myotubes with 10 μM of OT-9 in parallel with 24 nM of scramble or SSPN siRNA for 48 hours prior to osmotic shock and discovered that depletion of SSPN increased the CK release from 6.5% to 8% (FIG. 5d).
# [2] = Half-life analysis in CD-1 mouse plasma; assay type: in vitro ADME, CD-1 mice; conditions: 37° C.
# Procedure: Half-life analysis was performed by Eurofins Panlabs Inc. using 1 μM of compound with a final DMSO concentration of 0.5%. PBS or plasma from CD-1 mice was pre-warmed to 37° C. for 5 mins before addition of the test compounds and continued incubation at 37° C. At 0, 30, 60, 120, 240, and 1440 mins an aliquot of solution containing compounds was mixed with acetonitrile/methanol, mixed, and centrifuged. The supernatants were used for HPLC-MS/MS analysis.
smiles,measurement,setting,value
CCN(CC)c1ccc2cc(C(=O)Nc3ccc(C(=O)N4CCCCCC4)cc3)c(=O)oc2c1 [OT-9],increase of core α-DG in total protein lysates,[1],1.5 fold
same,levels of glycosylated α-DG in total protein lysates,[1],did not increase levels of glycosylated α-DG
same,CK release after osmotic shock,"mdx myotubes; 48 hours, 28.5 mosmol solution",did not reduce CK release
same,CK release after osmotic shock,"mdx myotubes; 48 hours, 45, 63 and 223.5 mosmol solutions",significantly reduced CK release
same,CK release,"mdx myotubes; 10 μM OT-9 with 24 nM SSPN siRNA, 48 hours",8%
same,CK release,"mdx myotubes; 10 μM OT-9 with 24 nM scramble siRNA, 48 hours",6.5%
same,half-life at 1 μM,[2],7.7 h

# Reference: US20230348394A1, “COMPOSITIONS AND METHODS FOR TREATING MUSCULAR DYSTROPHIES” (The Regents of the University of California, priority 2020, published 2023)
